Experimental data: patent US20230097253A1, “NOVEL QUINAZOLINE COMPOUND AS THERAPEUTIC AGENT FOR METABOLIC DISORDERS” (BIOWAY., INC, priority 2020, published 2023)

What was measured:
SIRT1 = target: T1, SIRT1 (Homo sapiens, UniProt Q96EB6); assay: Measurement of SIRT1 activity (Sirt1 direct fluorescent screening assay kit); type: biochemical; settings: compared with the control (RSV, resveratrol); FIG. 14
T1 construct: purchased Cayman
T1 sequence (Q96EB6 1-747): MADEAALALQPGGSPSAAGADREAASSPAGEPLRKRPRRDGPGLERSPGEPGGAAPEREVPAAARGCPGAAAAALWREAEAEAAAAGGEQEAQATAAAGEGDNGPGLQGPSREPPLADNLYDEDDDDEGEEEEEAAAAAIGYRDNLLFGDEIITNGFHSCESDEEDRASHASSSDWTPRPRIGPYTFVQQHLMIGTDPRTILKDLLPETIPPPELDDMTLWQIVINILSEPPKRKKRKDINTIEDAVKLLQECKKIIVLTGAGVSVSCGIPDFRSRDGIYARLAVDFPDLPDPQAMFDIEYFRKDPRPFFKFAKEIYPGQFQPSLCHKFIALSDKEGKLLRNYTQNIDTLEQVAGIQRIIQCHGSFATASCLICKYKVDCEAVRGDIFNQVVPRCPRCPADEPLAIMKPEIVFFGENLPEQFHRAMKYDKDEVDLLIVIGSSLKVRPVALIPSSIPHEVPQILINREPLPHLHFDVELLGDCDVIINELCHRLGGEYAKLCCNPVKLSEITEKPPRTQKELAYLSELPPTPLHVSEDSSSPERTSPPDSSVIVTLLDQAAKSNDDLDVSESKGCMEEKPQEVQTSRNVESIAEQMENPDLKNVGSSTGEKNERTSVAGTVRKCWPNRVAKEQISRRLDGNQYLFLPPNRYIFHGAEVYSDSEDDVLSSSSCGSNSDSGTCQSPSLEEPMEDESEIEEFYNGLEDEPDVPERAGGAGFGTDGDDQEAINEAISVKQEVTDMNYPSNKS
Experimental: All of the materials were provided from Sirt1 direct fluorescent screening assay kit (Cayman, Ann Arbor, Mich., USA).
SIRT1, p53 conjugated aminomethylcoumarin (AMC) protein, and 3 mM NAD+ were added to diluted assay buffer (50 mM Tris-HCl, pH 8.0, 137 mM NaCl, 2.7 mM KCl, and 1 mM MgCl2).
Three 100% initial activity wells among the 96-wells were added with 25 μL of assay buffer, 5 μL of diluted SIRT1, and 5 μL of a solvent.
Three background wells among the 96-wells were added with 30 μL of assay buffer and […].
Three sample wells among the 96-wells were added with 25 μL of assay buffer, 5 μL of diluted SIRT1, and 5 μL of a diluted test compound. The final DMSO concentration was lower than 2%. […]
After removing the plate cover, the plate was read with Cytation 5 using an excitation wavelength at 360 nm and an emission wavelength at 450 nm.
Then, the average level of fluorescence for each sample was measured.
The fluorescence level of the background well was subtracted from the fluorescence level of the 100% starting active well and that of the sample well.
To determine the percentage of each sample, each sample value was subtracted from the 100% initial activity value, divided by the 100% initial activity value, and multiplied by 100, and the resulting value was added to 100 and expressed as a percentage. […]

[1] = system: Huh7 cells induced with inflammatory response; assay: Protein expression levels in liver cells induced with inflammatory response (western blot); type: cell-based; settings: Huh7 cells pretreated with 10 ng/ml IL-1β; 0.5, 2.5, 10 μM, 24 hours; FIG. 11
Experimental: To induce steatosis in Huh-7 cells in each well except for control cells, the Huh-7 cells were pretreated with 10 ng/ml IL-1p for 2 hr except for the control.
The cells in each well were treated with the compound of the present invention, BW-3290, 0.5 μM, 2.5 μM, and 10 μM and then cultured for 24 hours. All media were aspirated and the cells were gently washed 3 times with cold PBS.
A cold lysis buffer containing 150 mM sodium chloride (NaCl), 5 mM ethylenediaminetetraacetic acid (EDTA), pH 8.0, […] 4-(2-hydroxyethyl)-1-piperazineethanesulfonic acid (HEPES), 1% nonylphenoxypolyethoxylethanol (NP-40), 2 μg/mL aprotinin, 1 μM pepstatin A, 10 μM leupeptin, 1 mM sodium fluoride (NaF), 0.2 mM sodium orthovanadate ([…]), and 1 μM phenylmethylsulfonyl fluoride (PMSF) was added thereto.
A whole cell lysate was collected and gently pipetted at least 10 times to ensure complete lysis. The sample was incubated on ice for 20 minutes and centrifuged 4° C. at 13,000 rpm, for 20 minutes. The supernatant was collected, 5× sodium dodecyl sulfate (SDS) sample buffer containing 50 mM Tris-CI (pH 6.8), 2% SDS, 0.1% bromopheol blue, and 10% glycerol was added to the sample, and boiled at 95° C. for 5 minutes. […]
Images were acquired using an ImageQuant LAS 3000 (Fujifilm, Tokyo, Japan). Data were analyzed.

CC(C)C(Nc1ncnc2nc[nH]c12)c1nc2cccc(Cl)c2c(=O)n1-c1ccccc1 (stereo not drawn) [BW-3290, 2-(1-((7H-purin-6-yl)amino)-2-methylpropyl)-5-chloro-3-phenylquinazolin-4(3H)-one]
SIRT1 activity level (SIRT1): further increases
protein expression level of p-IKKα [1]: decreased in a concentration-dependent manner
protein expression level of p-NFκ [1]: decreased in a concentration-dependent manner
